How the values were obtained:
Hypertension patients = assay: Anti-hypertension effect of transdermal atenolol in patients; format: in vivo, human; details: value after the slash, 100 mg atenolol HCl salt to the chest once per day
Protocol: 20 Hypertension patents were divided to 2 groups. Group A is control group (n=10, 1 ml of water was administrated to the chest of patients once per day) and group B is atenolol treated group (n=10, 100 mg of atenolol HCl salt was administrated to the chest of patients once per day) (Table 32).

[1] = system: rats (SLAC/GK, type 2 diabetes); assay: Blood lipid in type 2 diabetes rats, oral with food; format: in vivo, rat; details: for Cholesterol (HDL), Baseline / Cholesterol (total), Baseline / Triglycerides, Baseline: equal to 20 mg/kg of NSAIAs; for Cholesterol (HDL), Average / Cholesterol (total), Average / Triglycerides, Average: end of the fifth week, equal to 20 mg/kg of NSAIAs every day
Excerpt: (§1) 20% acetone solution of diethylaminoethyl acetylsalicylate.acetylsalicylic acid salt (P-1, in acetone); 4-acetamidophenyl salicylyldimethylaminobutyrate.HCl (P-6), diethylaminoethyl 5-(2,4-difluorophenyl) acetylsalicylate.5-(2,4-difluorophenyl) acetylsalicylic acid salt (P-8), diethylaminoethyl salicylsalicylate.AcOH (P-9), diethylaminoethyl salicylate.AcOH (P-10), diethylaminoethyl 5-acetamido-acetylsalicylate (P-58), diethylaminoethyl acetylsalicylsalicylate. acetylsalicylsalicylic acid salt (P-59), diethylaminoethyl acetylsalicylsalicylate. acetylsalicylsalicylsalicylic acid salt (P-60) (equal to of 20 mg/kg of NSAIAs) were mixed with food and were orally administered to the rats (SLAC/GK, type 2 diabetes, n=7) with food every day for 5 weeks. The blood glucose levels were measured once every 3 days at 3 pm (no fasting) from the second week to the fifth week. The blood lipid levels were measured at the end of the fifth week.

[2] = system: rats (SLAC/GK, type 2 diabetes); assay: Blood glucose in type 2 diabetes rats, transdermal; format: in vivo, rat; details: diabetic rats (SLAC/GK); for Blood glucose, Average: average second to fifth week, no fasting, equal to 20 mg/kg of NSAIAs once per day for 5 weeks; for Blood glucose, Baseline: equal to 20 mg/kg of NSAIAs once per day
Excerpt: (§2) HPPs lower blood glucose level in rat models (SLAC/GK, type 2 diabetes, n=7). 50% acetone solution of diethylaminoethyl acetylsalicylate.acetylsalicylic acid salt (P-1, in acetone); 4-acetamidophenyl salicylyldimethylaminobutyrate.HCl (P-6), diethylaminoethyl 5-(2,4-difluorophenyl) acetylsalicylate.5-(2,4-difluorophenyl).acetylsalicylic acid salt (P-8), diethylaminoethyl salicylsalicylate.AcOH (P-9), diethylaminoethyl salicylate.AcOH (P-10), diethylaminoethyl 5-acetamido-acetylsalicylate (P-58), diethylaminoethyl acetylsalicylsalicylate.acetylsalicylsalicylic acid salt (P-59), diethylaminoethyl acetylsalicylsalicylate.acetylsalicylsalicylsalicylic acid salt (P-60) (equal to of 20 mg/kg of NSAIAs) are administered transdermally to the backs (about 1.5 cm^2) of rats (fur was shaved) once per day (at 8 am) for 5 weeks. The blood glucose levels are measured once every 3 days at 3 pm (no fasting) from the second week to the fifth week (Table 24). The blood lipid levels are measured at the end of the fifth week (Table 25).

rats = assay: Antipyretic activity, E. coli suspension as pyrogen; format: in vivo; details: in °C (unit assumed)
Protocol: Rats are administered with sterilized E. coli suspension as a pyrogen. Each group of rats are administered with a prodrug compounds or parent compounds at a dosage specified below. The prodrug compounds are administered either orally or transdermally. The parent compounds are administered orally.

human skin tissue = details: pH 7.4
[3] = system: rats (SLAC/GK, type 2 diabetes); assay: Blood glucose in type 2 diabetes rats, oral with food; format: in vivo, rat; details: for Blood glucose, Diabetic rats, Average: average second to fifth week, no fasting, equal to 20 mg/kg of NSAIAs every day for 5 weeks; for Blood glucose, Diabetic rats, Baseline: equal to 20 mg/kg of NSAIAs
Excerpt: as §1

[4] = system: rats (SLAC/GK, type 2 diabetes); assay: Blood lipid in type 2 diabetes rats, transdermal; format: in vivo, rat; details: for Cholesterol (HDL), Baseline / Cholesterol (total), Baseline / Triglycerides, Baseline: equal to 20 mg/kg of NSAIAs; for Cholesterol (HDL), Average / Cholesterol (total), Average / Triglycerides, Average: end of the fifth week, equal to 20 mg/kg of NSAIAs once per day
Excerpt: as §2

[5] = system: mice (SLAC:NOD-IDDM, type 1 diabetes); assay: Blood glucose in type 1 diabetes mice, transdermal; format: in vivo, mouse; details: for Blood glucose, Average: average fourth to seventh week, no fasting, equal to 30 mg/kg of NSAIAs once per day for 7 weeks; for Blood glucose, Baseline: equal to 30 mg/kg of NSAIAs
Excerpt: The pro-drugs in this invention lower blood glucose levels in mouse models (SLAC:NOD-IDDM, type 1 diabetes, n=7). 50% acetone solution of diethylaminoethyl acetylsalicylate.acetylsalicylic acid salt (P-1, in acetone); 4-acetamidophenyl salicylyldimethylaminobutyrate.HCl (P-6), diethylaminoethyl 5-(2,4-difluorophenyl) acetylsalicylate.5-(2,4-difluorophenyl) acetylsalicylic acid salt (P-8), diethylaminoethyl salicylsalicylate.AcOH (P-9), diethylaminoethyl salicylate.AcOH (P-10), diethylaminoethyl 5-acetamido-acetylsalicylate (P-58), diethylaminoethyl acetylsalicylsalicylate. acetylsalicylsalicylic acid salt (P-59), diethylaminoethyl acetylsalicylsalicylate. acetylsalicylsalicylsalicylic acid salt (P-60) (equal to of 30 mg/kg of NSAIAs) were administered transdermally to the backs (about 1.5 cm^2) of mice (fur was shaved) once per day (at 8 am) for 7 weeks. The blood glucose levels were measured once every 3 days at 3 pm (no fasting) from the fourth week to the seventh week.

rat = details: rats
Protocol: The acute toxicity of the prodrug compounds and parent compounds are measured by LD50 of rat.

mice [6] = assay: Analgesic activity, D'Amour-Smith method (tail heat, pain threshold); format: in vivo; details: 200 mg/kg transdermally vs 200 mg/kg diflunisal orally
Protocol: After the tested compounds are administered (the dosages for each test compounds are specified in FIG. 3, prodrug compounds are administered orally and transdermally respectively in different groups, while parent compounds are administered orally) to a group of mice (six mice every group), the tails of mice are exposed to heat and the prolongation time of pain threshold is determined. […] The prodrug compounds show similar analgesic activities when the same dosages are administered orally or transdermally. (FIG. 3)

mice [7] = assay: Analgesic activity, acetic acid writhing; format: in vivo; details: 30 min before acetic acid
Protocol: The prodrug compounds are administered either transdermally or orally. The parent compounds are administered orally. The number of writhing that occurred when mice are administered the acetic acid solution are counted, and the rate of inhibition based on the control group which was not pretreated with any test compounds is calculated. […] The A group is the control group.

[8] = Plasma levels after transdermal administration to hairless mice; format: in vivo; details: mouse, in vivo
Protocol: Tested compounds (20% solution or suspension in 1 mL isopropanol) are administered transdermally to the skin of intact hairless mice. The plasma levels of the parent compounds are determined by HPLC.

normal rats [9] = assay: Blood glucose in normal rats, oral with food; format: in vivo, rat; details: for Blood glucose, Normal rats, Average: average second to fifth week, equal to 20 mg/kg of NSAIAs every day; for Blood glucose, Normal rats, Baseline: equal to 20 mg/kg of NSAIAs
normal rats [10] = assay: Blood glucose in normal rats, transdermal; format: in vivo, rat; details: for Blood glucose, Average: normal rats (second Average line of Table 24), average second to fifth week, equal to 20 mg/kg of NSAIAs once per day; for Blood glucose, Baseline: normal rats (second Baseline line of Table 24), equal to 20 mg/kg of NSAIAs
Excerpt: as §2, with “25). […]” for “25).”
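Wherever LD50 of HPP is given: acute toxicity in rats expressed as LD50, determined for both prodrugs and their parent compounds.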

**Q.** With CC(C)NCC(O)COc1ccc(CC(N)=O)cc1 (centres unmarked) [atenolol] as the compound, how does the “Blood pressure (2 weeks after treatment), second value” (Hypertension patients; 2 weeks after treatment) read?
**A.** 113 ± 23 mmHg

**Q.** And the “Blood Pressure (before treatment), second value” (Hypertension patients; before treatment)?
**A.** 110 ± 20 mmHg

**Q.** Which results are given for CC(=O)O.CCN(CC)CCOC(=O)c1ccccc1O [diethylaminoethyl salicylate.AcOH]?
**A.** Cholesterol (HDL), Baseline [1]: 1.6 ± 0.2 mmol/L; Cholesterol (total), Baseline [1]: 7.6 ± 0.5 mmol/L; Triglycerides, Baseline [1]: 5.7 ± 0.6 mmol/L; Cholesterol (HDL), Average [1]: 1.7 ± 0.1 mmol/L; Cholesterol (total), Average [1]: 5.2 ± 0.5 mmol/L; Triglycerides, Average [1]: 2.6 ± 0.2 mmol/L; Blood glucose, Average [2]: 8.2 ± 1 mmol/L; Blood glucose, Baseline [2]: 15.8 ± 3 mmol/L; body temperature, t = 0 min (rats; 100 mg/kg transdermally): 37.28 ± 0.06; body temperature, t = 90 min (rats; 100 mg/kg transdermally): 36.85 ± 0.06; body temperature, t = 180 min (rats; 100 mg/kg transdermally): 36.88 ± 0.08; body temperature, t = 270 min (rats; 100 mg/kg transdermally): 36.86 ± 0.07; body temperature, t = 0 min (rats; 150 mg/kg transdermally): 37.26 ± 0.05; body temperature, t = 90 min (rats; 150 mg/kg transdermally): 36.55 ± 0.05; body temperature, t = 180 min (rats; 150 mg/kg transdermally): 36.60 ± 0.07; body temperature, t = 270 min (rats; 150 mg/kg transdermally): 36.65 ± 0.05; In vitro penetration rate (apparent flux), prodrug compounds (human skin tissue): 60 μg/cm^2/h; Blood glucose, Diabetic rats, Average [3]: 7.8 ± 1 mmol/L; Blood glucose, Diabetic rats, Baseline [3]: 15.6 ± 3 mmol/L; Cholesterol (HDL), Baseline [4]: 1.6 ± 0.2 mmol/L; Cholesterol (total), Baseline [4]: 7.1 ± 0.5 mmol/L; Triglycerides, Baseline [4]: 5.6 ± 0.6 mmol/L; Cholesterol (HDL), Average [4]: 1.5 ± 0.1 mmol/L; Cholesterol (total), Average [4]: 4.9 ± 0.4 mmol/L; Triglycerides, Average [4]: 2.5 ± 0.2 mmol/L; Blood glucose, Average [5]: 8.2 ± 1 mmol/L; Blood glucose, Baseline [5]: 25.8 ± 3 mmol/L; LD50 of HPP (rat): 1600 mg/kg; analgesic activity, prolongation time of pain threshold of mice tails (mice [6]): stronger analgesic activity; % (rate of writhing inhibition) (mice [7]; 50 mg/kg transdermally): 60%; No. of Writhing (mice [7]; 50 mg/kg transdermally): 14.0; % (rate of writhing inhibition) (mice [7]; 100 mg/kg transdermally): 66%; No. of Writhing (mice [7]; 100 mg/kg transdermally): 11.9; Peak plasma concentration of parent compound after prodrug compound [8]: 40 mg/L; t, time to peak plasma level of parent compound after prodrug compound [8]: 30 min; Blood glucose, Normal rats, Average (normal rats [9]): 6.9 ± 1 mmol/L; Blood glucose, Normal rats, Baseline (normal rats [9]): 6.7 ± 1 mmol/L; Blood glucose, Average (normal rats [10]): 6.9 ± 1 mmol/L; Blood glucose, Baseline (normal rats [10]): 6.8 ± 1 mmol/L

**Q.** What does the source list for CC(=O)O.CCN(CC)CCOC(=O)c1ccccc1OC(=O)c1ccccc1O [diethylaminoethyl salicylsalicylate.AcOH]?
**A.** Cholesterol (HDL), Baseline [1]: 1.5 ± 0.1 mmol/L; Cholesterol (total), Baseline [1]: 7.9 ± 0.5 mmol/L; Triglycerides, Baseline [1]: 5.8 ± 0.6 mmol/L; Cholesterol (HDL), Average [1]: 1.4 ± 0.2 mmol/L; Cholesterol (total), Average [1]: 5.6 ± 0.4 mmol/L; Triglycerides, Average [1]: 2.7 ± 0.2 mmol/L; Blood glucose, Average [2]: 8.4 ± 1 mmol/L; Blood glucose, Baseline [2]: 16.5 ± 4 mmol/L; body temperature, t = 0 min (rats; 100 mg/kg transdermally): 37.28 ± 0.06; body temperature, t = 90 min (rats; 100 mg/kg transdermally): 36.75 ± 0.06; body temperature, t = 180 min (rats; 100 mg/kg transdermally): 36.78 ± 0.08; body temperature, t = 270 min (rats; 100 mg/kg transdermally): 36.80 ± 0.07; body temperature, t = 0 min (rats; 150 mg/kg transdermally): 37.26 ± 0.05; body temperature, t = 90 min (rats; 150 mg/kg transdermally): 36.45 ± 0.05; body temperature, t = 180 min (rats; 150 mg/kg transdermally): 36.40 ± 0.07; body temperature, t = 270 min (rats; 150 mg/kg transdermally): 36.50 ± 0.05; In vitro penetration rate (apparent flux), prodrug compounds (human skin tissue): 80 μg/cm^2/h; Blood glucose, Diabetic rats, Average [3]: 7.6 ± 1 mmol/L; Blood glucose, Diabetic rats, Baseline [3]: 16.5 ± 4 mmol/L; Cholesterol (HDL), Baseline [4]: 1.3 ± 0.1 mmol/L; Cholesterol (total), Baseline [4]: 7.7 ± 0.5 mmol/L; Triglycerides, Baseline [4]: 5.3 ± 0.5 mmol/L; Cholesterol (HDL), Average [4]: 1.4 ± 0.2 mmol/L; Cholesterol (total), Average [4]: 4.8 ± 0.4 mmol/L; Triglycerides, Average [4]: 2.4 ± 0.2 mmol/L; Blood glucose, Average [5]: 9.4 ± 1 mmol/L; Blood glucose, Baseline [5]: 26.5 ± 4 mmol/L; LD50 of HPP (rat): 2000 mg/kg; analgesic activity, prolongation time of pain threshold of mice tails (mice [6]): stronger analgesic activity; % (rate of writhing inhibition) (mice [7]; 50 mg/kg transdermally): 59%; No. of Writhing (mice [7]; 50 mg/kg transdermally): 14.2; % (rate of writhing inhibition) (mice [7]; 100 mg/kg transdermally): 65%; No. of Writhing (mice [7]; 100 mg/kg transdermally): 12.0; Peak plasma concentration of parent compound after prodrug compound [8]: 40 mg/L; t, time to peak plasma level of parent compound after prodrug compound [8]: 30 min; Blood glucose, Normal rats, Average (normal rats [9]): 6.6 ± 1 mmol/L; Blood glucose, Normal rats, Baseline (normal rats [9]): 6.3 ± 1 mmol/L; Blood glucose, Average (normal rats [10]): 6.7 ± 1 mmol/L; Blood glucose, Baseline (normal rats [10]): 6.5 ± 1 mmol/L

Source: patent US20210353579A1, “HIGH PENETRATION COMPOSITIONS AND USES THEREOF” (Techfields Pharma Co., Ltd., priority 2006, published 2021)
